Assay results: patent publication US5039528A, “EAA antagonists as anti-emetic drugs” (priority 1989, dated 1991)
Where two headings read alike, the source gives them in different places.

Legend:
NMDA receptors [1] = assay: Chick retina assay: protection against excitotoxic action of NMDA; type: cell-based
Description: (§1) Antagonist potencies were established in a chick retina assay which has
(§2) (NMDA, KA and Quis) for excitotoxic properties and EAA antagonists for
(§3) potency in protecting the retina against the excitotoxic action of such
(§4) agonists. The concentration of antagonist required to totally prevent the
(§5) toxic action of an agonist was used to compare antagonists for potency.
(§6) For purposes of illustration, the data were normalized by assigning a
(§7) EAA antagonist properties have been described in each category. Antagonis
(§8) potencies were established in a chick retina assay which has been used by
(§9) Quis) for excitotoxic properties and EAA antagonists for potency in
(§10) protecting the retina against the excitotoxic action of such agonists.
(§11) concentration of antagonist required to totally prevent the toxic action
(§12) of an agonist was used to compare antagonists for potency. For purposes o
(§13) to kynurenic acid vs KA (see table 1) and all other values were adjusted

neurons = settings: cited from earlier work
[2] = tested on: emesis associated with cancer chemotherapy; settings: cited from earlier work; for side effects: high doses; for anti-emetic effect in cancer chemotherapy: in vivo
KA receptors [3] = assay: Chick retina assay: protection against excitotoxic action of KA; type: cell-based
Description: as §1, §2, §3, §4, §5, §6, §7, §8, §9, §10, §11, §12, §13

Quis receptors [4] = assay: Chick retina assay: protection against excitotoxic action of Quis; type: cell-based
Description: as §1, §2, §3, §4, §5, §6, §7, §8, §9, §10, §11, §12, §13

humans = settings: cited from earlier work; for psychotic effects: humans
dogs [5] = assay: Emesis induction by KA in dogs; blockage by Kyn; type: in vivo, dog
Method: Kainic acid (KA), an EAA agonist which triggers the KA class of non-NMDA receptors, was administered to dogs at dosages in the vicinity of 0.5 mg/kg SC.

[6] = tested on: EAA receptors (NMDA, KA, Quis); settings: cited from earlier work
[7] = cited from earlier work; for BBB penetrability: Table 1; for penetration of blood brain barriers: statement in text
[8] = tested on: area postrema-CVO neurons; settings: cited from earlier work; for emesis at a toxic dose: dogs and monkeys; for neurotoxic effects: subcutaneous, immature animals of various species including monkeys, CVO brain regions
patients = settings: high blood concentrations, humans; cited from earlier work
dogs [9] = assay: Emesis induction by glutamate in dogs; blockage by D-AP5 or Kyn; type: in vivo, dog
ferrets = assay: Emesis induction by cisplatin (8 mg/kg IV) in ferrets; blockage by Kyn; type: in vivo, ferret; settings: cisplatin 8 mg/kg IV, ferrets
Method: Four ferrets (a control group) received 8 mg/kg IV cisplatin, a chemotherapeutic drug which has a powerful emetic effect.
Nine ferrets were treated with cisplatin (8 mg/kg IV), and with Kyn, either by bolus (one-shot) injection using 150 mg/kg, or by continuous IV infusion using 50 mg/kg/hour.

[10] = tested on: motion sickness or vertigo; settings: in vivo; cited from earlier work
NMDA receptors [11] = settings: Table 1, *: not screened in chick retina assay; estimated from other reported electrophysiological data; cited from earlier work
KA receptors [12] = settings: Table 1, *: not screened in chick retina assay; estimated from other reported electrophysiological data; cited from earlier work
Quis receptors [13] = settings: Table 1, *: not screened in chick retina assay; estimated from other reported electrophysiological data; cited from earlier work
cerebral ischemia = settings: animal experiments, cerebral ischemia (stroke); cited from earlier work
5-HT M receptors = settings: cited from earlier work
[14] = Table 2, normalized to kynurenic acid vs KA = 1
[15] = Table 1, normalized to kynurenic acid vs KA = 1
[16] = Kyn 50 mg/kg/hour continuous IV infusion

## OC(CCN1CCCC1)(c1ccccc1)C1CCCCC1 (centres unmarked) [procyclidine]
NMDA receptors [1]; [14]
  EAA antagonist potency vs NMDA: 67
neurons; Ser. No. 424,548
  reduction of the neurotoxicity of NMDA antagonists that penetrate the BBB: effective in reducing the neurotoxicity

## OC(CCN1CCCCC1)(c1ccccc1)C1CC2C=CC1C2 (centres unmarked) [biperiden]
neurons; Ser. No. 424,548
  reduction of the neurotoxicity of NMDA antagonists that penetrate the BBB: effective in reducing the neurotoxicity

## CN1CCN(CCCN2c3ccccc3Sc3ccc(Cl)cc32)CC1 [compazine]
[2]
  side effects: severe side effects such as abnormal motor movements, muscle rigidity, and tremors
  anti-emetic effect in cancer chemotherapy: only weakly active as anti-emetics

## CCCC(C)C1(CC)C(=O)NC(=S)NC1=O (centres unmarked) [thiopental]
NMDA receptors [1]; [14]
  EAA antagonist potency vs NMDA: 7
KA receptors [3]; [14]
  EAA antagonist potency vs KA: 2
Quis receptors [4]; [14]
  EAA antagonist potency vs Quis: 2

## CN1[C@@H]2CC[C@H]1C[C@@H](OC(c1ccccc1)c1ccccc1)C2 [benztropine]
neurons; in vivo
  reduction of the neurotoxicity of NMDA antagonists that penetrate the BBB: effective in reducing the neurotoxicity

## CNC1(c2ccccc2Cl)CCCCC1=O (centres unmarked) [ketamine]
humans
  psychotic effects: psychotic effects

## C=C(C)[C@H]1CN[C@H](C(=O)O)[C@H]1CC(=O)O [KA, kainic acid]
Dogs [5]; in the vicinity of 0.5 mg/kg SC, without Kyn
  emetic response to KA: All of the animals suffered an emetic response

## O=C(O)c1cc(O)c2ccc(Cl)cc2n1 [7-Cl-kynurenate, 7-chloro-kynurenic acid]
NMDA receptors [1]; [15]
  EAA antagonist potency vs NMDA: 10
[6]
  EAA receptor subtype order of blockade: NMDA>KA>Quis
[7]
  BBB penetrability: very low
  penetration of blood brain barriers: do not penetrate blood-brain barriers
KA receptors [3]; [15]
  EAA antagonist potency vs KA: 4
Quis receptors [4]; [15]
  EAA antagonist potency vs Quis: 3

## O=c1[nH]c2cc([N+](=O)[O-])c([N+](=O)[O-])cc2[nH]c1=O [DNQX, 6,7-dinitro-quinoxaline-2,3-dion]
NMDA receptors [1]; [15]
  EAA antagonist potency vs NMDA: 10
[6]
  block of non-NMDA vs NMDA receptors: block non-NMDA receptors substantially more powerfully than NMDA receptors
  potency compared with kynurenic or 7-chloro-kynurenic acid: significantly more powerful
[7]
  BBB penetrability: very low
  penetration of blood brain barriers: do not penetrate blood-brain barriers
KA receptors [3]; [15]
  EAA antagonist potency vs KA: 20
Quis receptors [4]; [15]
  EAA antagonist potency vs Quis: 40

## COc1ccc2c(c1)[C@]13CCCC[C@@H]1[C@H](C2)N(C)CC3 [dextromethorphan]
NMDA receptors [1]; [14]
  EAA antagonist potency vs NMDA: 20

## N[C@@H](CCC(=O)O)C(=O)O [Glutamate, glutamate]
[8]
  emesis at a toxic dose: first causes the animal to vomit before continued excitatory stimulation destroys the area postrema-CVO neurons
  neurotoxic effects: powerful neurotoxic effects
patients
  emetic properties: induce vomiting
[7]
  penetration of blood brain barriers: does not penetrate the BBB
Dogs [9]; 150 mg/kg IV
  emetic response to glutamate: An emetic response was observed in all animals

## O=C(O)c1cc(=O)c2ccccc2[nH]1 [kynurenic acid]
ferrets; [16]
  behavior/malaise after cisplatin, treated by continuous infusion: displayed playful behavior, sought and ate food, did not appear ill
  vomiting after cisplatin, treated by continuous infusion: did not vomit
ferrets; Kyn 150 mg/kg bolus
  appeared as ill as the control animals, treated by bolus injection: only one appeared to be as ill as the control animals
  vomiting and malaise after cisplatin, treated by bolus injection: Three of the ferrets treated by bolus injection vomited once or twice and showed transient malaise
NMDA receptors [1]; [15]
  EAA antagonist potency vs NMDA: 4
[6]
  EAA receptor subtype order of blockade: NMDA>KA>Quis
KA receptors [3]; [15]
  EAA antagonist potency vs KA: 1
Quis receptors [4]; [15]
  EAA antagonist potency vs Quis: 1
Dogs [9]; Kyn 75 mg/kg SC
  blockage of glutamate-induced emesis: could be blocked
Dogs [5]; 50 mg/kg SC
  blockage of KA-induced emesis: emesis was blocked

## CC(C(O)c1ccc(O)cc1)N1CCC(Cc2ccccc2)CC1 (centres unmarked) [ifenprodil]
NMDA receptors [1]; [15]
  EAA antagonist potency vs NMDA: 100

## CCN(CC)C(C)CN1c2ccccc2Sc2ccccc21 (centres unmarked) [ethopropazine]
NMDA receptors [1]; [14]
  EAA antagonist potency vs NMDA: 40

## OC(CN1CCC(Cc2ccc(F)cc2)CC1)c1ccc(Cl)cc1 (centres unmarked) [SL 82,0715]
NMDA receptors [1]; [15]
  EAA antagonist potency vs NMDA: 50

## CN1[C@@H]2C[C@@H](OC(=O)[C@H](CO)c3ccccc3)C[C@H]1[C@@H]1O[C@@H]12 [scopolamine]
[10]
  effect against motion sickness or vertigo: relatively ineffective unless taken before a boat or airplane ride or other motion begins, or before the onset of vertigo
  effect on nausea and vomiting caused by other factors: not effective

## C=CCC1(C(C)CCC)C(=O)N=C(S)NC1=O (centres unmarked) [thiamylal]
NMDA receptors [1]; [14]
  EAA antagonist potency vs NMDA: 13
KA receptors [3]; [14]
  EAA antagonist potency vs KA: 3
Quis receptors [4]; [14]
  EAA antagonist potency vs Quis: 2

## O=C(O)C1CN(C/C=C/P(=O)(O)O)CCN1 (centres unmarked) [CPP-ene]
NMDA receptors [11]
  EAA antagonist potency vs NMDA: 200
KA receptors [12]
  EAA antagonist potency vs KA: 0
Quis receptors [13]
  EAA antagonist potency vs Quis: 0
[7]
  BBB penetrability: moderate
  penetration of blood brain barriers: do not readily penetrate blood brain barriers

## O=C(O)[C@@H]1C[C@H](CP(=O)(O)O)CCN1 [CGS 19755]
NMDA receptors [11]
  EAA antagonist potency vs NMDA: 200
KA receptors [12]
  EAA antagonist potency vs KA: 0
Quis receptors [13]
  EAA antagonist potency vs Quis: 0

## CN(C)CCOC(c1ccccc1)c1ccccc1 [dimenhydrinate]
[10]
  effect against motion sickness or vertigo: relatively ineffective unless taken before a boat or airplane ride or other motion begins, or before the onset of vertigo
  effect on nausea and vomiting caused by other factors: not effective

## CCNC1(c2cccs2)CCCCC1=O (racemic) [tilletamine]
NMDA receptors [1]; [14]
  EAA antagonist potency vs NMDA: 200
[7]
  penetration of blood brain barriers: permeate easily through BBB's
humans
  psychotic effects: psychotic effects

## C[C@]12N[C@H](Cc3ccccc31)c1ccccc12 [MK-801]
NMDA receptors [1]; [14]
  EAA antagonist potency vs NMDA: 5000
humans
  psychotic effects: psychotic effects
humans; interaction with NMDA receptors throughout the brain
  serious side effects: psychotic disturbances and pathomorphological changes in cerebrocortical neurons
Cerebral ischemia
  neuroprotective effects: powerful neuroprotective effects

## N[C@H](CCCP(=O)(O)O)C(=O)O [D-AP5, D-2-amino-5-phosphonopentanoate]
NMDA receptors [1]; [15]
  EAA antagonist potency vs NMDA: 40

## CN1CC[C@@]23CCCC[C@@H]2[C@@H]1Cc1ccc(O)cc13 [dextrorphan]
NMDA receptors [1]; [14]
  EAA antagonist potency vs NMDA: 40

## O=C(O)C1CN(CCCP(=O)(O)O)CCN1 (centres unmarked) [CPP]
NMDA receptors [11]
  EAA antagonist potency vs NMDA: 200
KA receptors [12]
  EAA antagonist potency vs KA: 0
Quis receptors [13]
  EAA antagonist potency vs Quis: 0

## O=C(CCCN1CCC(O)(c2ccc(Cl)cc2)CC1)c1ccc(F)cc1 [haloperidol]
[2]
  side effects: severe side effects such as abnormal motor movements, muscle rigidity, and tremors
  anti-emetic effect in cancer chemotherapy: only weakly active as anti-emetics

## N[C@@H](CC(=O)O)C(=O)O [aspartate]
[8]
  emesis at a toxic dose: first causes the animal to vomit before continued excitatory stimulation destroys the area postrema-CVO neurons
  neurotoxic effects: powerful neurotoxic effects
patients
  emetic properties: induce vomiting

## OC(CCN1CCCCC1)(c1ccccc1)C1CCCCC1 (centres unmarked) [trihexyphenidyl]
neurons; Ser. No. 424,548
  reduction of the neurotoxicity of NMDA antagonists that penetrate the BBB: effective in reducing the neurotoxicity

## N[C@H](CCCCCP(=O)(O)O)C(=O)O [D-AP7, D-2-amino-7-phosphonoheptanoate]
NMDA receptors [1]; [15]
  EAA antagonist potency vs NMDA: 13
[7]
  BBB penetrability: very low
  penetration of blood brain barriers: do not readily penetrate blood brain barriers

## NC(CCCC(=O)O)C(=O)O (stereo not drawn) [α-amino adipate]
NMDA receptors [1]; [15]
  EAA antagonist potency vs NMDA: 5

## C/C(=C\C(N)C(=O)O)CP(=O)(O)O (centres unmarked) [CGP 37849]
NMDA receptors [11]
  EAA antagonist potency vs NMDA: 200
KA receptors [12]
  EAA antagonist potency vs KA: 0
Quis receptors [13]
  EAA antagonist potency vs Quis: 0
[7]
  BBB penetrability: moderate

## CCN(CC)CCNC(=O)c1cc(Cl)c(N)cc1OC [metoclopramide]
[2]
  anti-emetic effect in cancer chemotherapy: only partially effective
5-HT M receptors
  5-HT M receptor antagonism: only a weak 5-HT M receptor antagonist
